Where “and” joins values, the source holds several entries; their conditions need not be identical. Identical values can stand only once. Like-named read-outs stand apart in the source and are kept apart here.
What was measured:
[1] = tested on: Salmonella typhimurium TA98; assay: Salmonella reversion assay, TA98
Method: Test strains TA98 and TA100 were obtained from Bruce N. Ames (University of California, Berkley, Calif.). Mutagenicities were determined both in the absence of and in the presence of a mammalian liver S9 activating system. S9 is the 9000×g supernatant prepared from liver homogenates from Aroclor 1254 stimulated male Sprague Dawley rats. The S9 was purchased from Molecular Toxicology, Inc. (Anapolis, Md.).
Bacterial broth cultures were grown overnight at 37° with shaking in Oxoid Broth #2. For assays in the absence of S9, a 0.5 ml aliquot of 100 mM Sodium Phosphate Buffer, pH 7.4, was added to sterile 13×100 mm capped culture tubes. For assays in the presence of S9, a 0.5 ml aliquot of 10% S9 mix was added. The S9 mix consisted of 8 mM magnesium chloride, 33 mM potassium chloride, 5 mM glucose-6-phosphate, 4 mM NADP, 100 mM sodium phosphate, pH 7.4 and S9 in a concentration of approximately 1.46 mg protein/ml.
The culture tubes were placed in an ice bath and 0.1 ml of the bacterial suspension and 0.1 ml of a DMSO solution of the test compound were added. The mixture was vortexed gently and incubated at 37° for 20 minutes with shaking in a water bath. Molten top agar (2.0 ml) containing 0.5 mM histidine HCl and 0.5 mM biotin were added, and the mixture was vortexed gently and poured onto a minimal glucose plate. After allowing the agar to solidify, the plates were inverted and placed in a 37° incubator in the dark for 48 hours. The revertant (mutant) colonies were counted and the background lawn was examined on all plates. A response that was two times that of the DMSO solvent control was considered a positive response.

[2] = tested on: Salmonella typhimurium TA98; assay: Salmonella reversion assay after heating at 205° C., TA98; assay type: cell-based; settings: for Revertants/plate: heated at 205° C.
Method: (§1) Test strains TA98 and TA100 were used. Again, mutagenicities were determined both in the absence and in the presence of the mammalian liver S9 activating system.
(§2) A response that was two times that of the solvent control was considered a positive response.

[3] = tested on: Salmonella typhimurium ATCC 14028 attached to human buccal epithelial cells; assay: microbe, parasite or virus in culture; assay type: cell-based; settings: Table A-3
Method: Additional studies on the detachment of Salmonella typhimurium from human buccal epithelial cells were conducted.
S. typhimurium ATCC 14028 was grown in nutrient broth (BBL Microbiology system, Cockeysville, Md.) for 16 hours at 37° C. The cells were centrifuged and washed twice with 0.008 M phosphate buffered saline (PBS, at pH 7.2) at 4500 rpm for 10 minutes. The last suspension was diluted in PBS to obtain a cell concentration 0.5 to 1×10^9 cells/ml using spectrophotometric measurement. Human epithelial cells were obtained by swabbing the buccal surface of a healthy, nonsmoking donor. […] The number of living cells was estimated and the suspension was diluted to 0.5 to 1×10^5 cells/ml.
The suspension of the human buccal cells was mixed with an equal volume of the bacterial suspension (3.0 ml), or PBS (0.8 ml) in 10 ml Erlenmeyer flasks. Contact was allowed for 1.5 hours at 35° C. under agitation. After incubation, 1.0 ml of each suspension was transferred into an Eppendorff vial, centrifuged at 3000 rpm for 10 minutes, and washed with PBS. The cells were treated with 1.0 ml PBS or 1.0 ml of the test chemical solution. Treatment was performed by suspending, gently vortexing, and centrifuging at 1500 rpm for 10 minutes. After the treatment, the cells were washed and placed on microscopic slides for examination.
EC50 represents the inverse measurement of the potency of a compound. EC50 values were determined by a nonlinear regression of the detachment effect versus the cationic surfactant concentration data from Table A-3.

adherent S. typhimurium = settings: 10 minutes
[4] = tested on: Salmonella typhimurium TA100; assay: Salmonella reversion assay after heating at 205° C., TA100; assay type: cell-based; settings: for Revertants/plate: heated at 205° C.
Method: as §1, §2

[5] = tested on: Salmonella typhimurium ATCC 14028
Method: Salmonella typhimurium ATCC 14028 was used for these studies and prepared as follows. A 16 hour culture in nutrient broth (BBL) was centrifuged at 15,000 rpm for 10 minutes at 4° C. The deposit was washed once with 0.04 M potassium phosphate buffer (PPB) at pH 7.0 and resuspended in fresh PPB to contain 1-2×10^9 bacteria/ml. Samples (1.0 ml) of this suspension were added into a 1.8 ml Eppendorff vial and centrifuged at 14,000 rpm for 4 minutes. The pellets were first suspended in 1.0 ml of PPB or 1.0 ml of an appropriate concentration of test chemical solution, and then centrifuged and washed with the buffer under the same conditions. After washing, the samples of bacterial suspensions were appropriately diluted in PPB. Duplicate 0.05 ml samples were withdrawn and immediately added onto nutrient agar plates. Colonies were counted after 24 hours incubation at 37° C.

CCCCCCCCCCCCCCCC[n+]1ccccc1 [CPC, cetylpyridinium chloride]
Revertants/plate ([1]; TA98, +S9, 1 μg/plate): 25 ± 2 Revertants/plate
Revertants/plate ([1]; TA98, +S9, 5 μg/plate): 28 ± 1 Revertants/plate
Revertants/plate ([1]; TA98, +S9, 10 μg/plate): 25 ± 3 Revertants/plate
Revertants/plate ([1]; TA98, +S9, 20 μg/plate): 28 ± 2 Revertants/plate
Revertants/plate ([1]; TA98, +S9, 40 μg/plate): 30 ± 1 Revertants/plate
Revertants/plate ([1]; TA98, +S9, 50 μg/plate): 35 ± 6 Revertants/plate
Revertants/plate ([1]; TA98, -S9, 1 μg/plate): 24 ± 3 Revertants/plate
Revertants/plate ([1]; TA98, -S9, 5 μg/plate): 18 ± 4 Revertants/plate
mutagenicity (in words) ([1]; TA98, absence of S9, low concentrations): nonmutagenic
mutagenicity and cytotoxicity (in words) ([1]; TA98, presence of S9): neither mutagenic nor cytotoxic
Revertants/plate ([2]; TA98, +S9, 0.1 μg/plate): 26 ± 4 Revertants/plate
Revertants/plate ([2]; TA98, +S9, 1.0 μg/plate): 20 ± 1 Revertants/plate
Revertants/plate ([2]; TA98, +S9, 5.0 μg/plate): 25 ± 4 Revertants/plate
Revertants/plate ([2]; TA98, +S9, 10.0 μg/plate): 22 ± 3 Revertants/plate
Revertants/plate ([2]; TA98, -S9, 0.1 μg/plate): 16 ± 3 Revertants/plate
Revertants/plate ([2]; TA98, -S9, 1.0 μg/plate): 20 ± 5 Revertants/plate
Revertants/plate ([2]; TA98, -S9, 5.0 μg/plate): 22 ± 3 Revertants/plate
Revertants/plate ([2]; TA98, -S9, 10.0 μg/plate): 25 ± 3 Revertants/plate
mutagenicity after heating in vegetable oil (in words) ([2]; TA98, absence or presence of S9, all concentrations tested): did not produce substances which are mutagenic
adherence, mean value of attached bacteria ([3]; 2.5 ug/ml): 73 ± 55
adherence, mean value of attached bacteria ([3]; 5 ug/ml): 42 ± 22
adherence, mean value of attached bacteria ([3]; 10 ug/ml): 28 ± 10
Colony Count (±SD) (adherent S. typhimurium; 5 μg/ml): 2.52 ± 2.69 × 10^3
Colony Count (±SD) (adherent S. typhimurium; 10 μg/ml): 4.40 ± 5.68 × 10^2
Colony Count (±SD) (adherent S. typhimurium; 50 μg/ml): 2.0 ± 4.5 × 10^1
Revertants/plate ([4]; TA100, +S9, 0.1 μg/plate): 122 ± 3 Revertants/plate
Revertants/plate ([4]; TA100, +S9, 1.0 μg/plate): 126 ± 14 Revertants/plate
Revertants/plate ([4]; TA100, +S9, 5.0 μg/plate): 118 ± 10 Revertants/plate
Revertants/plate ([4]; TA100, +S9, 10.0 μg/plate): 123 ± 8 Revertants/plate
Revertants/plate ([4]; TA100, -S9, 0.1 μg/plate): 117 ± 6 Revertants/plate
Revertants/plate ([4]; TA100, -S9, 1.0 μg/plate): 113 ± 8 Revertants/plate
Revertants/plate ([4]; TA100, -S9, 5.0 μg/plate): 123 ± 4 Revertants/plate
Revertants/plate ([4]; TA100, -S9, 10.0 μg/plate): 126 ± 4 Revertants/plate
mutagenicity after heating in vegetable oil (in words) ([4]; TA100, absence or presence of S9, all concentrations tested): did not produce substances which are mutagenic
bacterial viability ([5]; CPC 10 ug/ml + 0.0625% Na2-EDTA): 6.21 ± 0.75 × 10^8 CFU/ml
bacterial viability ([5]; CPC 10 ug/ml + 0.125% Na2-EDTA): 6.24 ± 0.79 × 10^8 CFU/ml
bacterial viability ([5]; CPC 10 ug/ml + 0.5% Na2-EDTA): 5.79 ± 0.1 × 10^8 CFU/ml
bacterial viability ([5]; CPC 10 ug/ml, no chelating agent): 6.08 ± 0.6 × 10^8 CFU/ml
bacterial viability ([5]; CPC 17 ug/ml + 0.125% Na2-EDTA): 1.52 ± 0.42 × 10^7 CFU/ml
bacterial viability ([5]; CPC 17 ug/ml + 0.5% Na2-EDTA): 4.8 ± 0.42 × 10^6 CFU/ml
bacterial viability ([5]; CPC 17 ug/ml, no chelating agent): 7.25 ± 0.1 × 10^7 CFU/ml
bacterial viability ([5]; CPC 20 ug/ml + 0.25% EGTA): 3.01 ± 0.44 CFU/ml
bacterial viability ([5]; CPC 20 ug/ml + 1% EGTA): 2.64 ± 0.32 CFU/ml
bacterial viability ([5]; CPC 30 ug/ml + 0.25% EGTA): 85 ± 65 CFU/ml
bacterial viability ([5]; CPC 30 ug/ml + 0.25% Na2-EDTA): 20 ± 13 CFU/ml
bacterial viability ([5]; CPC 30 ug/ml, no chelating agent): 117 ± 189 CFU/ml and 82 ± 73 CFU/ml
bacterial viability ([5]; CPC 40 ug/ml + 1% EGTA): 0 CFU/ml
bacterial viability ([5]; CPC 40 ug/ml, no chelating agent): 8 ± 14 CFU/ml
decrease in cell viability ([5]; CPC and Na2-EDTA used together): 2.5 fold
log reduction at 20 µg/mL ([5]; Salmonella enterica, read-out: decrease in CFU/ml): 1.5

Source: US5366983A, “Use of quaternary ammonium compounds to remove salmonella contamination from meat products” (The Board of Trustees of The University of Arkansas, priority 1992, dated 1994)
